Source: PMC13415951 (Journal of Experimental Botany, 2026)
“And” between values parts separate entries of the source, which are not always exact repeats. Equal entries are not always repeated. Where two headings read alike, the source gives them in different places.

What was measured:
BdUGT5g03300 [1] = molecular target: T1, BdUGT5g03300 (Brachypodium distachyon, UniProt I1IW79); assay: biochemical
T1 sequence (I1IW79 1-469): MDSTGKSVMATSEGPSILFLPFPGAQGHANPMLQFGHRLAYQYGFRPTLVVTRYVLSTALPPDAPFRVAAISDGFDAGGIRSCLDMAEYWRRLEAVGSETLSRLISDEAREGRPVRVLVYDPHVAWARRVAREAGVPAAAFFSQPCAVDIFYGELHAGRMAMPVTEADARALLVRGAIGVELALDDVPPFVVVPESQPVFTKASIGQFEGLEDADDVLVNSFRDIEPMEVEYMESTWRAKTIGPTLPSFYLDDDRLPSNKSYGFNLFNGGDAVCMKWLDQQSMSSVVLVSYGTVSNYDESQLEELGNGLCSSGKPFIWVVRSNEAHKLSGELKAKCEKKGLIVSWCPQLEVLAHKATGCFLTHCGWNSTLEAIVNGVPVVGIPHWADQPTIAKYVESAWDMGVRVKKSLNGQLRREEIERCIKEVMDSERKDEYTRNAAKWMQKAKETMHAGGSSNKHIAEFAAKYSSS

[2] = molecular target: T2, OsUGT79 H122A/L123A/Q202A (Oryza sativa subsp. japonica, UniProt Q7XT97, H122A/L123A/Q202A); assay: biochemical; type: biochemical
T2 sequence (Q7XT97 1-466 H122A/L123A/Q202A): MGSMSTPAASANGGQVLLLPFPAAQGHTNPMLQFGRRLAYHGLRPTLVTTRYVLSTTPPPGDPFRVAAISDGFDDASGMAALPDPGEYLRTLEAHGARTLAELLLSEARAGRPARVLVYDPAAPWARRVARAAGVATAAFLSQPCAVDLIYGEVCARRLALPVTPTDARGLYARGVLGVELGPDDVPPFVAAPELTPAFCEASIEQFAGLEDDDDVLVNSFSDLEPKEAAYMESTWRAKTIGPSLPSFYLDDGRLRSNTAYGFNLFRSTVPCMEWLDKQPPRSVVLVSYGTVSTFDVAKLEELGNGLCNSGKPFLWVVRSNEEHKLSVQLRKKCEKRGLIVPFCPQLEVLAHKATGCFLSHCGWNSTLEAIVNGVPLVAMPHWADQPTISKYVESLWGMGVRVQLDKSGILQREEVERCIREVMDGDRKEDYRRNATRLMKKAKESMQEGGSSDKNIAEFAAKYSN

[3] = test system: B. distachyon line OE-10R14; design: species or system Brachypodium distachyon; conditions: in vivo
B. distachyon Bd21-3 = test system: B. distachyon Bd21-3; design: species or system Brachypodium distachyon; conditions: in vivo
[4] = molecular target: T2, OsUGT79 H122A/L123A/Q202A; type: biochemical
OsUGT79 Q202A [5] = molecular target: T3, OsUGT79 Q202A (Oryza sativa subsp. japonica, UniProt Q7XT97, Q202A); type: biochemical
T3 sequence (Q7XT97 1-466 Q202A): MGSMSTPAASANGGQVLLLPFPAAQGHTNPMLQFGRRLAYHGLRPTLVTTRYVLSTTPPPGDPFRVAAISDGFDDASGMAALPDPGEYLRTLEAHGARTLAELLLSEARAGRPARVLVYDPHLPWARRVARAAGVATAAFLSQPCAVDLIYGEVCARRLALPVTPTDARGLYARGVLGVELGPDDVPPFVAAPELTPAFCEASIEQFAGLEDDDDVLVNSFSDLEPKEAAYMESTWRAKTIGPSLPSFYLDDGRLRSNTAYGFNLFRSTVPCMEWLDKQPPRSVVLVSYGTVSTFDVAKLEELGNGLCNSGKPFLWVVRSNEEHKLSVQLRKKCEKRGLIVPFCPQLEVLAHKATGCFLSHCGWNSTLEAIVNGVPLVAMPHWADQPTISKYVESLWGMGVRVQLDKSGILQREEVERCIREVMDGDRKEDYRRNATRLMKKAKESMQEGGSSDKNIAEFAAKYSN

HvUGT13248 [6] = molecular target: T4, HvUGT13248 (Hordeum vulgare subsp. vulgare, UniProt M0Y4P1); assay: biochemical; type: biochemical; design: made in house; host or cells: E. coli
T4 sequence (M0Y4P1 1-475): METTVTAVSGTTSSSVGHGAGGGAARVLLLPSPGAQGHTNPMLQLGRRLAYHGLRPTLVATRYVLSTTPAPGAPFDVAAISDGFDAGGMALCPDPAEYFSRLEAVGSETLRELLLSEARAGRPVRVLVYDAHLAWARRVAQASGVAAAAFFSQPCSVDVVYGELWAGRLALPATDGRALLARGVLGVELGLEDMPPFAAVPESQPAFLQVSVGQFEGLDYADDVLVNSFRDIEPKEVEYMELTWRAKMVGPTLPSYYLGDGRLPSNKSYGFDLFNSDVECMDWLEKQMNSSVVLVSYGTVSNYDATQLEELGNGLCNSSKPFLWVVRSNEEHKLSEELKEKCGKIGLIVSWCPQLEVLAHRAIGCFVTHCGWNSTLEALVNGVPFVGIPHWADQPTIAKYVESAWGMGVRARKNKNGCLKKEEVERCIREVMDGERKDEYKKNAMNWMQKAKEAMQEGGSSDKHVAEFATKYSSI

HvUGT13248 [7] = molecular target: T4, HvUGT13248
[8] = test system: wheat cultivar Apogee seedlings; design: species or system Triticum aestivum; conditions: in vivo
OsUGT79 [9] = molecular target: T5, OsUGT79 (Oryza sativa subsp. japonica, UniProt Q7XT97); assay: biochemical; type: biochemical
T5 construct: made in house; host or cells: E. coli
T5 sequence (Q7XT97 1-466): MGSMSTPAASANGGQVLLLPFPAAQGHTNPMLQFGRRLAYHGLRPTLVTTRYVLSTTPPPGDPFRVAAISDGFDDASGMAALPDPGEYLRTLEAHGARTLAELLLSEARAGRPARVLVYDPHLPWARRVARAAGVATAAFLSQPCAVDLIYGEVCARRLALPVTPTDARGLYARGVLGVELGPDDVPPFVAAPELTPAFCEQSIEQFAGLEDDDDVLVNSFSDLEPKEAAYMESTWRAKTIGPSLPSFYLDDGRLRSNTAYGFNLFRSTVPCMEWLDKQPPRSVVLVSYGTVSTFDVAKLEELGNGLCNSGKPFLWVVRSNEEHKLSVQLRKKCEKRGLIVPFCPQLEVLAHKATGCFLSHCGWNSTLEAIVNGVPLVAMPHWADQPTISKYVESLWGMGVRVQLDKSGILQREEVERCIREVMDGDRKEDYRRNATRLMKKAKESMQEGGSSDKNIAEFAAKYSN

OsUGT79 Q202A [10] = molecular target: T3, OsUGT79 Q202A; assay: biochemical; type: biochemical
OsUGT79 [11] = molecular target: T5, OsUGT79; assay: biochemical; type: biochemical; remark: listed apart in the source
BdUGT5g03300 [12] = molecular target: T1, BdUGT5g03300; type: biochemical
[13] = substrate: CC1(C)CCC[C@]2(C)[C@@H]3[C@H]1[C@@H](O)[C@@]2(C)C[C@H]3O; assay: purified protein, by the assay type

For 11-Acetyl-culmorin, the “Glucosylation rate of DON, percentage of the control” value (BdUGT5g03300 [1]) was 0.83±0.01%.

With CC1=C[C@H]2O[C@@H]3[C@H](O)C[C@](C)([C@@]2(CO)[C@H](O)C1=O)[C@]31CO1 [DON, deoxynivalenol] the “K M (DON)” value [2] was 1300 µM, the “V max with DON” value [2] was 0.26 µmol/min/mg and the “DON concentration tolerated without significant reduction in root length” value [3] was “up to 50 mg l^−1”. The “DON concentration up to which root growth was observed” value (B. distachyon Bd21-3) was “up to 16 mg l^−1”, the “DON concentrations at which root growth was not affected or barely affected” value (B. distachyon Bd21-3) was 2 to 8 mg/L and the “Specific activity (glucoside formation)” value [4] was 6.60 ± 0.31 nmol/min/mg. The “Specific activity (glucoside formation)” value (OsUGT79 Q202A [5]) was 161 ± 46 nmol/min/mg, the “Specific activity (glucoside formation)” value (BdUGT5g03300 [1]) was 1.07 ± 0.03 nmol/min/mg and the “K M (DON)” value (HvUGT13248 [6]) was 1800 µM. For the same molecule, the “V max with DON” value (HvUGT13248 [6]) was 0.18 µmol/min/mg, the “Specific activity (glucoside formation)” value (HvUGT13248 [7]) was 8.77 ± 0.52 nmol/min/mg and the “DON concentration at which root growth was already impaired” value [8] was 3 mg/L. For the same molecule, the “Effect on primary and total root length” value [8] was “significant reduction”, the “K M (DON)” value (OsUGT79 [9]) was 190 µM and the “V max with DON” value (OsUGT79 [9]) was 0.63 µmol/min/mg. The “K M (DON)” value (OsUGT79 Q202A [10]) was 290 µM, the “V max with DON” value (OsUGT79 Q202A [10]) was 0.85 µmol/min/mg and the “Specific activity (glucoside formation)” value (OsUGT79 [11]) was 159 ± 33 nmol/min/mg. The “K M (DON)” value (BdUGT5g03300 [12]) was 1100 µM and the “V max with DON” value (BdUGT5g03300 [12]) was 0.14 µmol/min/mg.

In the case of Culmorin-8,11-disulfate, the “Glucosylation rate of DON, percentage of the control” value (BdUGT5g03300 [1]) is reported as 95±1% and 78±1%, the “Glucosylation rate of DON, percentage of the control” value (HvUGT13248 [7]) is reported as 98±2% and the “Glucosylation rate of DON, percentage of the control” value (OsUGT79 [11]) is reported as 103±2% and 99±7%.

Culmorin-8-glucoside was tested, and the “Glucosylation rate of DON, percentage of the control” value (BdUGT5g03300 [1]) was 0.93±0.02%, the “Glucosylation rate of DON, percentage of the control” value (HvUGT13248 [7]) was 92±2% and 81±3% and the “Glucosylation rate of DON, percentage of the control” value (OsUGT79 [11]) was 97±7% and 91±7%.

Culmorin-8-sulfate was tested, and the “Glucosylation rate of DON, percentage of the control” value (HvUGT13248 [7]) was 97±4% and 79±1% and the “Glucosylation rate of DON, percentage of the control” value (OsUGT79 [11]) was 105±1% and 89±4%.

In the case of Culmorin-11-glucoside, the “Glucosylation rate of DON, percentage of the control” value (BdUGT5g03300 [1]) is reported as 0.48±0.03% and the “Glucosylation rate of DON, percentage of the control” value (OsUGT79 [11]) is reported as 96±7% and 115±5%.

For Culmorin-11-sulfate, the “Glucosylation rate of DON, percentage of the control” value (BdUGT5g03300 [1]) was 0.30±0.02%, the “Glucosylation rate of DON, percentage of the control” value (HvUGT13248 [7]) was 90±2% and 49±3% and the “Glucosylation rate of DON, percentage of the control” value (OsUGT79 [11]) was 91±7% and 61±2%.

B1: BdUGT5g03370 (Brachypodium distachyon) (protein)
chain: MDSINTTAQRSIGGGGGHVLLLPFPGMQGHANPMLQLGRRLAYHGLRPTLVVTRYVFSTTATTDGCPFPVAAISDGFDAGGIASCPDTAEYLRRMESVGSETLSRLISDEARAGRPVRVLVYDSHLPWARRAAKRAGVAAAAFLTQLCAVDVIYGEAWAGRVALPLTDGSALRGVLSVELGPDDVPPFVAAPEWYPAFTESALGQFDGLEEADDVLVNSFRDLEPKEADYMELVWRTKTVGPTLPSFYLDDNRLPLNKTYGFNLFSSIALCMEWLDKQVPCSVVLASYGTVANLNSTQLEELGYGLCNSRQPFLWVLRSDEAEKLPKDLRDKCNTKGLIVPFCPQLEVLAHKATGCFLTHCGWNSTIEAIVTGVPMVAIPQWADQPTTAKYVESAWGIGRRACPDRECLVTREKIERCVKEVICGEKEYTRNAAKWMQKAKEAMQQGGSSDKNISDFVAKYL
Molecule B1 has a Km [13] of 59 ± 7 µM and a Vmax [13] of 0.57 nmol/min/mg.

B2: BdUGT5g03380 (Brachypodium distachyon) (protein)
chain: MESVNTSPHSSDHEGGGGGGAHVLLVPLPAQGHMNPMLQFGRRLAYHGLRPTLAATRYVLSTGPPPGAPFRVAAFSDGFDAGGMASCADPVEYCRKFEAVGSSTLAQAIESETAAGRAPTVLVYDPHMAWVPRVARAAGVPVAAFMSQSCAVDLVYGEAWAGRAPLPMADGSALKRRGIVSIDLAAEDLSPFVVSPEIYPKYLDVSIRQFEALDDADDVFVNSFRDLEPLEAEYMEKRWRAKTVGPTLPSFFLGDDRLPSNKAYGVNFFSATAPCMAWLDRQPARSVVLASYGTVYNLESMELDELGNGLCDSGKPFLWVVRSSEAEKLSEQLLGRCKEKGLIVPWCPQLDVLAHNAIGCFLTHCGWNSTTEAIVAGVPMVAMPRSADQPTTAKYVESAWGIGVRVRADEKGLVKRAEVEGCIKKVMDGEMKDEFRGNAAEWMRKAKEAMQEGGSSDKNIAEFAAKYLER
Molecule B2 has a Km [13] of 150 µM and a Vmax [13] of 0.43 ± 0.03 nmol/min/mg.

B3: HvUGT13248 (Hordeum vulgare subsp. vulgare) (protein)
chain: METTVTAVSGTTSSSVGHGAGGGAARVLLLPSPGAQGHTNPMLQLGRRLAYHGLRPTLVATRYVLSTTPAPGAPFDVAAISDGFDAGGMALCPDPAEYFSRLEAVGSETLRELLLSEARAGRPVRVLVYDAHLAWARRVAQASGVAAAAFFSQPCSVDVVYGELWAGRLALPATDGRALLARGVLGVELGLEDMPPFAAVPESQPAFLQVSVGQFEGLDYADDVLVNSFRDIEPKEVEYMELTWRAKMVGPTLPSYYLGDGRLPSNKSYGFDLFNSDVECMDWLEKQMNSSVVLVSYGTVSNYDATQLEELGNGLCNSSKPFLWVVRSNEEHKLSEELKEKCGKIGLIVSWCPQLEVLAHRAIGCFVTHCGWNSTLEALVNGVPFVGIPHWADQPTIAKYVESAWGMGVRARKNKNGCLKKEEVERCIREVMDGERKDEYKKNAMNWMQKAKEAMQEGGSSDKHVAEFATKYSSI
B3 gave a Km ([13]; pH 7.0) of 27 ± 4 µM and a Vmax ([13]; pH 7.0) of 18.2 ± 0.8 nmol/min/mg.
